Results as given in US9944721B2, “Polysialic acid and use for treatment of neurodegenerative and neuroinflammatory diseases” (RHEINISCHE FRIEDRICH-WILHELMS UNIVERSITÄT BONN, priority 2013, dated 2018).

Test system: human microglial line derived from induced pluripotent stem cells (expressing Siglec-11)
Experiment: MTT cell viability of human microglia treated with sialic acid forms
Assay type: cell-based
Method: A human microglial line derived from induced pluripotent stem cells as described in WO 2010/125110 was used to study the effect of sialic acid forms with different chain length. Human microglial cells were cultured on 5 μg/ml poly-L-lysin (PLL, Sigma)-coated dishes in N2-medium containing DMEM/F12 culture medium (Gibco) supplemented with 1% N2 (Invitrogen), 0.48 mM L-glutamine (Gibco) and optionally 100 μg/ml penicillin/streptomycin (Gibco). Cells were cultured with high density and splitted 1:2 when required.
The effect of different length and fractions of oligosialic acids and polysialic acids on the human microglial lines were analyzed by determination of cell viability normalized to the cell number and after treatment with monomeric sialic acid (SA, molecular weight of 0.3 kDa, Nacalai Tesque ING, Japan) and sialic acids consisting of 3 monomers (Tri-SA; molecular weight of 0.9 kDa, Nacalai Tesque ING, Japan) and sialic acids consisting of 6 monomers (Hexa-SA; molecular weight of 1.9 kDa, Nacalai Tesque ING, Japan), PSA with a number of sialic acid monomers between 14 and 26 (PSA-20; low molecular weight of PSA between 4.3 and 8 kDa for >90% of the substance) and PSA with a length between 46 and 110 of sialic acid monomers (PSA-60; medium molecular weight of PSA between 14.2 and 34 kDa for >90% of the substance).
The microglial cells were cultured in medium as described above and treated in culture with the different sialic acid forms.
Cell viability was determined by the MTT (3-(4,5-Dimethylthiazol-2-yl)-2,5-diphenyltetrazolium bromide, Millipore) assay after 24 hours treatment with distinct sialic acid forms with different chain length and normalized to the cell number. The light absorbance of the purple formazan in living cells was determined by a spectrophotometer at a wavelength of 570 nm (Perkin Elmer, Envision Multiplate Reader).

## poly-(α(2→8)Neu5Ac)n [PSA-20]
24 hours treatment, 0.15 μM, 0.5 μM and 1.5 μM, FIG. 2B
  metabolic activity of the microglial cells (MTT, normalized to cell number): did not affect the metabolic activity
Summary of Example 3, MTT, 24 hours
  Intact viability of human microglia: Yes
